Test results taken from patent US20230310452A1, “BROMODOMAIN AND EXTRA TERMINAL DOMAIN (BET) INHIBITOR COMPOSITIONS AND METHODS THEREOF FOR USE AS ANTI-AGING AGENTS” (MDI Biological Laboratory, priority 2020, published 2023).
Entries after “also recorded” stand apart in the source; their conditions may differ.

Tests used:
CGI- gene expression [1] = test: CGI- gene expression upon treatment with BET inhibitors other than JQ1 in cell lines/tissues (FIG. 14); assay type: cell-based; details: indicated cell lines/tissues, concentrations, durations, vs untreated controls
From the text: Moreover, the cell line or tissue used in the BET inhibitor treatment, as well as treatment duration and concentration were also provided.

BET = details: cited from earlier work
CGI- gene expression [2] = test: JQ1 in vivo treatment of mice, published RNA-seq data, CGI- gene expression (FIG. 13); details: intraperitoneal injections of 50 mg/kg/day, vs untreated controls
Protocol: FIG. 13 illustrates JQ1 in vivo treatment data based on published RNA-seq data generated from mice by intraperitoneal injections of 50 mg/kg/day as indicated. All data are from the comparison with untreated controls for CGI+ genes (upper) and CGI- genes (lower) for each of *p < 0.05; **p < 0.01, ***p< 0.001. Sham operation; transverse aortic constriction (TAC); myocardial infarction (MI).
All of the data were based on published RNA-seq data and compared to untreated controls for CGI+ and CGI- genes.

CGI- genes / CGI+ genes = test: Gene expression changes upon JQ1 treatment versus untreated controls (FIGS. 12A-12C); assay type: cell-based
From the text: (§1) FIG. 12 illustrates JQ1 treatment suppresses CGI- gene misexpression. FIGS. 12A-12B show gene expression changes upon JQ1 treatment. […] All data are from the comparison of JQ1 treated with untreated controls for CGI+ genes (upper) and CGI- genes (lower) for each cell type. TAC: transverse aortic constriction. […] Representative data from three blind tests with similar results are shown. The control (Con) curve is to the left of the JQ1 treatment curve from 12-19 days post treatment.
BET family proteins (e.g., BRD2/4) are also components of local enhancer mediated transcriptional activation (FIG. 11A).
(§2) The effects of JQ1 on C. elegans lifespan was also tested. […] Treatment with BET inhibitors can suppress misexpression of CGI- genes during aging, and that this, in turn, will delay age-associated degenerative changes in mice.

C. elegans = C. elegans lifespan after one-time JQ1 treatment (FIG. 12D); assay type: in vivo; details: representative of three blind tests
From the text: as §1, §2

[3] = cited from earlier work

Cc1sc2c(c1C)C(c1ccc(Cl)cc1)=N[C@@H](CC(=O)NCCCCCCCCCCNC(=O)C[C@@H]1N=C(c3ccc(Cl)cc3)c3c(sc(C)c3C)-n3c(C)nnc31)c1nnc(C)n1-2 [MS645, (S)-N,N′-(decane-1,10-diyl)bis(2-((6S)-4-(4-chlorophenyl)-2,3,9-trimethyl-6H-thieno[3,2-f] [1,2,4]triazolo[4,3-a][1,4]diazepin-6-yl)acetamide)]
CGI- gene expression upon BET inhibitors other than JQ1 (CGI- gene expression [1]): suppress Cytosine-phosphate-Guanine (CpG) island negative genes

CCS(=O)(=O)Nc1ccc(Oc2ccc(F)cc2F)c(-c2cn(C)c(=O)c3[nH]ccc23)c1 [ABBV-075, N-(4-(2,4-difluorophenoxy)-3-(6-methyl-7-oxo-6,7-dihydro-1H-pyrrolo[2,3-c]pyridin-4-yl)phenyl)ethanesulfonamide]
CGI- gene expression upon BET inhibitors other than JQ1 (CGI- gene expression [1]): suppress Cytosine-phosphate-Guanine (CpG) island negative genes

COc1cc(-c2cn(C)c(=O)c3cnccc23)cc(OC)c1CN(C)CC(=O)NCCOCCOCCNc1cccc2c1C(=O)N(C1CCC(=O)NC1=O)C2=O.Cl.Cl (centres unmarked) [dBRD9, 2-[[[4-(1,2-Dihydro-2-methyl-1-oxo-2,7-naphthyridin-4-yl)-2-6-dimethoxyphenyl]methyl]methylamino]-N-[2-[2-[2-[[2-(2,6-dioxo-3-piperidinyl)-2,3-dihydro-1,3-dioxo-1H-isoindol-4-yl]amino]ethoxy]ethoxy]ethyl] acetamide dihydrochloride]
CGI- gene expression upon BET inhibitors other than JQ1 (CGI- gene expression [1]): suppress Cytosine-phosphate-Guanine (CpG) island negative genes

Oc1ccc(C=Cc2cc(O)cc(O)c2)cc1 [resveratrol]
pan-BET inhibitor activity (BET): pan-BET inhibitor activity

Cc1sc2c(c1C)C(c1ccc(Cl)cc1)=N[C@@H](CC(N)=O)c1nnc(C)n1-2 [CPI-203, (S)-2-(4-(4-chlorophenyl)-2,3,9-trimethyl-6H-thieno[3,2-f][1,2,4]triazolo [4,3-a][1,4]diazepin-6-yl)acetamide]
CGI- gene expression upon BET inhibitors other than JQ1 (CGI- gene expression [1]): suppress Cytosine-phosphate-Guanine (CpG) island negative genes

Cc1noc(C)c1-c1cnc2c(-c3ccc(C(=O)O)cc3)cn([C@@H](C)c3ccccn3)c2c1 [PLX51107, (S)-4-(6-(3,5-dimethylisoxazol-4-yl)-1-(1-(pyridin-2-yl)ethyl)-1H-pyrrolo[3,2-b]pyridin-3-yl)benzoic acid]
CGI- gene expression upon BET inhibitors other than JQ1 (CGI- gene expression [1]): suppress Cytosine-phosphate-Guanine (CpG) island negative genes

COc1cc2c(cc1-c1c(C)noc1C)ncc1[nH]c(=O)n([C@H](C)c3ccccn3)c12 [I-BET 151, (R)-7-(3,5-dimethylisoxazol-4-yl)-8-methoxy-1-(1-(pyridin-2-yl)ethyl)-1,3-dihydro-2H-imidazo[4,5-c]quinolin-2-one]
CGI- gene expression upon BET inhibitors other than JQ1 (CGI- gene expression [1]): suppress Cytosine-phosphate-Guanine (CpG) island negative genes

Cc1sc2c(c1C)C(c1ccc(Cl)cc1)=N[C@@H](CC(=O)OC(C)(C)C)c1nnc(C)n1-2 [JQ1, tert-butyl (S)-2-(4-(4-chlorophenyl)-2,3,9-trimethyl-6H-thieno[3,2-f][1,2,4]triazolo[4,3-a][1,4]diazepin-6-yl)acetate]
CGI- gene expression in mice (CGI- gene expression [2]): suppression of CGI- gene expression
overlap of CGI- genes downregulated by JQ1 with CGI- genes upregulated during aging or upon nuclear architecture disruption (CGI- genes / CGI+ genes; FIG. 12C): largely overlapped
CGI- gene expression upon JQ1 treatment (CGI- genes / CGI+ genes; JQ1 treated vs untreated controls, each cell type, FIGS. 12A-12B): global downregulation of CGI- gene expression; also recorded: suppresses CGI- gene expression
CGI+ gene expression upon JQ1 treatment (CGI- genes / CGI+ genes; JQ1 treated vs untreated controls, FIGS. 12A-12B): not significantly affected
median lifespan of adult C. elegans (C. elegans): significantly extended the median lifespan; also recorded: lifespan extension
safety for humans [3]: safe for humans

CCNC(=O)c1cc2c(-c3cc(C(C)(C)O)ccc3Oc3c(C)cc(F)cc3C)cn(C)c(=O)c2[nH]1 [ABBV-744, N-ethyl-4-(2-(4-fluoro-2,6-dimethylphenoxy)-5-(2-hydroxypropan-2-yl)phenyl)-6-methyl-7-oxo-6,7-dihydro-1H-pyrrolo[2,3-c]pyridine-2-carboxamide]
CGI- gene expression upon BET inhibitors other than JQ1 (CGI- gene expression [1]): suppress Cytosine-phosphate-Guanine (CpG) island negative genes

COc1nnc2ccc(N3CCC(c4ccc(OCCN5CCN(C)C(=O)[C@H]5C)cc4)CC3)nn12 [AZD 5153, (R)-4-(2-(4-(1-(3-methoxy-[1,2,4]triazolo[4,3-b]pyridazin-6-yl)piperidin-4-yl)phenoxy)ethyl)-1,3-dimethylpiperazin-2-one]
CGI- gene expression upon BET inhibitors other than JQ1 (CGI- gene expression [1]): suppress Cytosine-phosphate-Guanine (CpG) island negative genes

Cc1sc2c(c1C)C(c1ccc(Cl)cc1)=N[C@@H](CC(=O)Nc1ccc(OCCOCCOCCOCCNc3cccc4c3C(=O)N(C3CCC(=O)NC3=O)C4=O)cc1)c1nnc(C)n1-2 (stereo partly drawn) [ARV-825, 2-((S)-4-(4-chlorophenyl)-2,3,9-trimethyl-6H-thieno[3,2-f][1,2,4]triazolo [4,3-a][1,4]diazepin-6-yl)-N-(4-(2-(2-(2-(2-((2-(2,6-dioxopiperidin-3-yl)-1,3-dioxoisoindolin-4-yl)amino)ethoxy)ethoxy)ethoxy)ethoxy)phenyl)acetamide]
CGI- gene expression upon BET inhibitors other than JQ1 (CGI- gene expression [1]): suppress Cytosine-phosphate-Guanine (CpG) island negative genes

COC(=O)C[C@@H]1N=C(c2ccc(Cl)cc2)c2c(sc(C)c2C)-n2c(C)nnc21 [MS417, methyl (S)-2-(4-(4-chlorophenyl)-2,3,9-trimethyl-6H-thieno[3,2-f][1,2,4]triazolo[4,3-a][1,4]diazepin-6-yl)acetate]
CGI- gene expression upon BET inhibitors other than JQ1 (CGI- gene expression [1]): suppress Cytosine-phosphate-Guanine (CpG) island negative genes
